Data reported in patent US20250127790A1, “COMBINATION THERAPY USING VPS34 INHIBITORS” (Deciphera Pharmaceuticals, LLC, priority 2021, published 2025).

Experiments:
[1] = tested on: 786-O renal cell carcinoma cells; assay: qRT-PCR, combination with STING agonist ADU-S100, 786-O cells; assay type: cell-based, Human; conditions: 2 μM Compound 1 or 2, 50 μM ADU-S100, 24 h
Protocol: (§1) 786-O cells were grown in RPMI-1640 medium containing 10% fetal bovine serum. Cells were then incubated for 2 days at 37 degrees Celsius, 5% CO2, and 95% humidity. […] cells were treated with DMSO control, 2 μM Compound 1 or 2 μM Compound 2 in combination with 50 μM STING agonist ADU-S100 for 24 h. Cells were washed with PBS and RNA was isolated using the PureLink RNA kit (#12183018A, Thermo Fisher Scientific) according to the manufacturer's protocol. Genomic DNA was removed using DNA-binding columns (RNeasy plus kit, #74134, Qiagen) and/or DNase treatment (#12185010, Thermo Fisher Scientific). RNA was quantified using NanoDrop (Thermo Fisher Scientific) and 50 ng/μL RNA was used for cDNA synthesis with SuperScript IV VILO Master Mix (#11756050, Thermo Fisher Scientific). Quantitative RT-PCR (qRT-PCR) was run with diluted cDNA (1:25 or 1:12.5), PowerUp SYBR Green Master Mix (#A25741, Thermo Fisher Scientific), and 200 nM primers (see below) on a CFX Connect RT-PCR system (BioRad). Data was analyzed using the ΔΔCT method. Results are mean±SEM of three independent experiments.

[2] = tested on: A-498 renal cell carcinoma cells; assay: qRT-PCR, combination with STING agonist ADU-S100, A-498 cells; assay type: cell-based, Human; conditions: 2 μM Compound 1 or 2, 50 μM ADU-S100, 24 h
Protocol: as §1, with “A-498” for “786-O”, “Minimal Essential Medium” for “RPMI-1640 medium”

[3] = tested on: 786-O renal cell carcinoma cells; assay: Cytokine secretion assay, combination with ADU-S100, 786-O cells; assay type: cell-based, human; conditions: 2 μM Compound 1 or 2, 50 μM ADU-S100, 24 h
Protocol: (§2) 786-O cells were treated with DMSO control, 2 μM Compound 1 or 2 μM Compound 2 in combination with 50 μM STING agonist ADU-S100 for 24 h. Cell culture medium was centrifuged at 1600 rpm for 10 min at 4° C. and obtained supernatant stored at −80° C. Cytokine levels were quantified using following Meso Scale Discovery (MSD) assays: human R-PLEX RANTES/CCL5 (#F21ZN), U-PLEX CXCL10/IP-10 (#K151UFK). Assays were run on the SECTOR Quickplex Imager and analyzed using Discovery Workbench version 4.0 (MSD). Low concentrations of human IFNβ were determined using High Sensitivity IFN Beta ELISA Kit, (PBL assay science, #41415-1).

[4] = tested on: A-498 renal cell carcinoma cells; assay: Cytokine secretion assay, combination with ADU-S100, A-498 cells; assay type: cell-based, human; conditions: 2 μM Compound 1 or 2, 50 μM ADU-S100, 24 h
Protocol: as §2, with “A-498” for “786-O”

B16-F10 melanoma cells = assay: qRT-PCR, combination with ADU-S100, B16-F10 cells; assay type: cell-based, Murine; conditions: for IFNB1 mRNA expression: 2 μM Compound 1 or 2, 10 μM ADU-S100, 4 h; for CCL5 mRNA expression / CXCL10 mRNA expression: 2 μM Compound 1 or 2, 10 μM ADU-S100, 24 h
Protocol: B16-F10 cells were grown in DMEM/F12 medium containing 10% fetal bovine serum. Cells were then incubated for 2 days at 37 degrees Celsius, 5% CO2, and 95% humidity. […] cells were reversely transfected with scrambled siRNA control (siSCR) or siRNA targeting STING (siSTING). […] Cells were washed with PBS and RNA was isolated using the PureLink RNA kit (#12183018A, Thermo Fisher Scientific) according to the manufacturer's protocol. Genomic DNA was removed using DNA-binding columns (RNeasy plus kit, #74134, Qiagen) and/or DNase treatment (#12185010, Thermo Fisher Scientific). RNA was quantified using NanoDrop (Thermo Fisher Scientific) and 50 ng/μL RNA was used for cDNA synthesis with SuperScript IV VILO Master Mix (#11756050, Thermo Fisher Scientific). Quantitative RT-PCR (qRT-PCR) was run with diluted cDNA (1:25 or 1:12.5), PowerUp SYBR Green Master Mix (#A25741, Thermo Fisher Scientific), and 200 nM primers (see below) on a CFX Connect RT-PCR system (BioRad). Data was analyzed using the ΔΔCT method. Results are mean±SEM of three independent experiments.

| Compound | CCL5 mRNA expression [1] | CXCL10 mRNA expression [1] | IFNB1 mRNA expression [1] | CCL5 mRNA expression [2] | CXCL10 mRNA expression [2] | IFNB1 mRNA expression [2] | CCL5 secretion [3] | CXCL10 secretion [3] | IFNβ secretion [3] | CCL5 secretion [4] | CXCL10 secretion [4] | IFNβ secretion [4] | IFNB1 mRNA expression (B16-F10 melanoma cells) | CCL5 mRNA expression (B16-F10 melanoma cells) | CXCL10 mRNA expression (B16-F10 melanoma cells) |
| --- | --- | --- | --- | --- | --- | --- | --- | --- | --- | --- | --- | --- | --- | --- | --- |
| Nc1ncnc2c1ncn2[C@@H]1O[C@@H]2COP(=O)([S-])O[C@@H]3[C@H](O)[C@@H](COP([O-])(=S)O[C@H]2[C@H]1O)O[C@H]3n1cnc2c(N)ncnc21.[Na+].[Na+] (stereo partly drawn) [ADU-S100, reference compound] | increased | no effect | no effect | increased | increased | no effect | significantly increased | significantly increased | mild effect | mildly increased | mildly increased | no effect | did not increase | did increase | did increase |
| C[C@@H]1COCCN1c1cc(N2CCCC[C@@H]2C(F)(F)F)[nH]c(=O)c1 [Compound 1, 4-((R)-3-methylmorpholino)-6-((R)-2-(trifluoromethyl)piperidin-1-yl)pyridin-2(1H)-one] | increased | increased | increased | mildly increased | mildly increased | mildly increased | increased | increased | increased | increased | increased | increased | did not increase | mildly increase | mildly increase |
| C[C@@H]1COCCN1c1cc(=O)n2c(n1)N(Cc1cncc(Cl)c1)[C@H](C(F)(F)F)CC2 [Compound 2, (S)-9-((5-chloropyridin-3-yl)methyl)-2-((R)-3-methylmorpholino)-8-(trifluoromethyl)-6,7,8,9-tetrahydro-4H-pyrimido[1,2-a]pyrimidin-4-one] | increased | increased | increased | mildly increased | mildly increased | mildly increased | increased | increased | increased | increased | increased | increased | did not increase | mildly increase | mildly increase |
